Activity calls are given as the source filed them. No cut-off for these calls is given here.
Columns and labels:
Mushroom tyrosinase [1] = target: T1, Mushroom tyrosinase (Agaricus bisporus, UniProt O42713+Q00024+C7FF04+C7FF05); experiment: Inhibition of mushroom tyrosinase using L-tyrosine as substrate incubated for 30 mins by microplate reader assay; type: protein assay
Mushroom tyrosinase [2] = target: T1, Mushroom tyrosinase; experiment: Inhibition of mushroom tyrosinase using L-DOPA as substrate incubated for 30 mins by microplate reader assay; type: protein assay
[3] = Antioxidant activity assessed as ABTS radical scavenging activity at 100 uM measured at 1 min interval for 10 mins by microplate reader analysis; type: functional
[4] = Antioxidant activity assessed as DPPH radical scavenging activity at 500 uM incubated for 30 mins under dark condition by microplate reader assay; type: functional
[5] = Antioxidant activity assessed as ROS scavenging activity at 40 uM incubated for 30 mins under dark condition in presence of SIN-1 by microplate reader assay; type: functional
Mushroom tyrosinase [6] = target: T1, Mushroom tyrosinase; experiment: Inhibition of mushroom tyrosinase using varying levels of L-DOPA as substrate by Dixon plot analysis; type: protein assay
[7] = target: T2, Mushroom tyrosinase (Agaricus bisporus) (UniProt O42713+Q00024+C7FF04+C7FF05); experiment: Competitive inhibition of mushroom tyrosinase assessed as increase in Km with constant Vmax at 25 to 100 uM using varying levels of L-DOPA as substrate by Lineweaver-Burk plot analysis; type: protein assay; conditions: dose 25-100 µM
B16-F10 [8] = experiment: Cytotoxicity against mouse B16-F10 cells upto 20 uM incubated for 72 hrs by EZ-Cytox method; type: toxicity, cell-based; conditions: b16-f10, 72 h
B16-F10 [9] = experiment: Antimelanogenic activity against IBMX/[…] stimulated mouse B16-F10 cells assessed as reduction in intracellular melanin production preincubated for 1 hr followed by IBMX/[…] addition and measured after 72 hrs by microplate reader assay; type: functional, cell-based; conditions: dose 5-20 µM, time 73.0 hrs
[10] = target: T3, Tyrosinase (Mus musculus) (UniProt P11344); experiment: Inhibition of tyrosinase activity in IBMX/[…] stimulated mouse B16-F10 cells preincubated for 1 hr followed by IBMX/[…] addition and measured after 72 hrs by microplate reader assay; type: cell-based; conditions: dose 5-20 µM, time 73.0 hrs
T3 sequence (whole entry): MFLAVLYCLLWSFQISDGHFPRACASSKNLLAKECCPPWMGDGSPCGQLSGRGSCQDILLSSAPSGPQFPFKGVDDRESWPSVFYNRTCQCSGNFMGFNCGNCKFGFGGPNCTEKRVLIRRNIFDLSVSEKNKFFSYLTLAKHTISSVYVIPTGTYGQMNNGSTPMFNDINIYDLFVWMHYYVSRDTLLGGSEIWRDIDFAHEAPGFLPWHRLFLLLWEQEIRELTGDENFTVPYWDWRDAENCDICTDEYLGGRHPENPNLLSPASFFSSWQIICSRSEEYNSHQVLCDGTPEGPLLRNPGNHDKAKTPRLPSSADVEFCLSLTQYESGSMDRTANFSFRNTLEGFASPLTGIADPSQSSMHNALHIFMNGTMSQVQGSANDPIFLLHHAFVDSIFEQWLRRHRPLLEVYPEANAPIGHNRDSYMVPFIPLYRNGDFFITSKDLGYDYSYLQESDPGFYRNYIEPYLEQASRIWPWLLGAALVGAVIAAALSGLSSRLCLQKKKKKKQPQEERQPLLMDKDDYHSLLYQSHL

[11] = target: T2, Mushroom tyrosinase (Agaricus bisporus); experiment: Potency index, ratio of kojic acid IC50 to test compound IC50 for inhibition of mushroom tyrosinase using L-Tyrosine as substrate; type: protein assay
[12] = target: T2, Mushroom tyrosinase (Agaricus bisporus); experiment: Mixed type inhibition of mushroom tyrosinase at 3 to 12 uM using varying levels of L-DOPA as substrate by Lineweaver-Burk plot analysis; type: protein assay; conditions: dose 3-12 µM
[13] = target: T2, Mushroom tyrosinase (Agaricus bisporus); experiment: Potency index, ratio of kojic acid IC50 to test compound IC50 for inhibition of mushroom tyrosinase using L-Dopa as substrate; type: protein assay

SMILES | IC50 (Mushroom tyrosinase [1]) | IC50 (Mushroom tyrosinase [2]) | Activity [3] | Activity [4] | Activity [5] | Ki (Mushroom tyrosinase [6]) | inhibition [7] | Activity (B16-F10 [8]) | Activity (B16-F10 [9]) | inhibition [10] | Ratio IC50 [11] | inhibition [12] | Ratio IC50 [13]
COc1ccc(CNC2=NC(=O)/C(=C/c3ccc(F)cc3F)S2)cc1 | > 200 µM | 179.2 µM | inactive | inactive | inactive |  |  |  |  |  |  |  | 
COc1ccc(CNC2=NC(=O)/C(=C/c3ccc(O)cc3)S2)cc1 | > 200 µM | 29.2 µM |  | inactive |  |  |  |  |  |  |  |  | 
COc1ccc(CNC2=NC(=O)/C(=C/c3ccc(O)c(O)c3)S2)cc1 | > 200 µM | 105.1 µM | 75% | 100% | Active |  |  |  |  |  |  |  | 
COc1ccc(CNC2=NC(=O)/C(=C/c3cc(C(C)(C)C)c(O)c(C(C)(C)C)c3)S2)cc1 | > 200 µM | 100.9 µM | 41% | > 80% | inactive |  |  |  |  |  |  |  | 
O=C1O[C@H]([C@@H](O)CO)C(O)=C1O |  |  |  | 96% |  |  |  |  |  |  |  |  | 
COc1ccc(CNC2=NC(=O)/C(=C/c3ccc(O)c(OC)c3)S2)cc1 | 29.4 µM | 78.1 µM | 41% | 93% | inactive |  |  |  |  |  |  |  | 
CCOc1cc(/C=C2\SC(NCc3ccc(OC)cc3)=NC2=O)ccc1O | 174.2 µM | 98.5 µM | 41% | > 80% | inactive |  |  |  |  |  |  |  | 
COc1ccc(/C=C2\SC(NCc3ccc(OC)cc3)=NC2=O)cc1 | > 200 µM | > 200 µM | inactive | inactive | Active |  |  |  |  |  |  |  | 
COc1ccc(CNC2=NC(=O)/C(=C/c3ccc(F)c(F)c3)S2)cc1 | > 200 µM | 79.5 µM | inactive | inactive | inactive |  |  |  |  |  |  |  | 
COc1ccc(CNC2=NC(=O)/C(=C/c3cc(OC)c(O)c(OC)c3)S2)cc1 | > 200 µM | > 200 µM | 41% |  | inactive |  |  |  |  |  |  |  | 
COc1ccc(CNC2=NC(=O)/C(=C/c3ccc(OC)cc3OC)S2)cc1 | > 200 µM | 146.4 µM | inactive | inactive | Active |  |  |  |  |  |  |  | 
COc1ccc(CNC2=NC(=O)/C(=C/c3ccc(OC)c(O)c3)S2)cc1 | 107.9 µM | 13 µM | 41% |  | inactive | 65.83 µM | Active | Non-Toxic | Dose-Dependent Effect | Dose-Dependent Effect |  |  | 
Cc1c(C)c2c(c(C)c1O)CCC(C)(C(=O)O)O2 (stereo unspecified) |  |  | 99.9% |  | Active |  |  |  |  |  |  |  | 
COc1ccc(CNC2=NC(=O)/C(=C/c3ccc(O)cc3O)S2)cc1 | 2.1 µM | 0.4 µM | 90% | > 80% | inactive | 1.1 µM |  | Non-Toxic | Dose-Dependent Effect | Dose-Dependent Effect | 26 | Active | 19
COc1ccc(CNC2=NC(=O)/C(=C/c3ccc(OC)c(OC)c3)S2)cc1 | > 200 µM | 136 µM | inactive | inactive | Active |  |  |  |  |  |  |  | 
COc1ccc(CNC2=NC(=O)/C(=C/c3cc(OC)c(OC)c(OC)c3)S2)cc1 | > 200 µM | > 200 µM | inactive | inactive | Active |  |  |  |  |  |  |  | 

Reference: ChEMBL document CHEMBL5523672, “Thiazol-4(5H)-one analogs as potent tyrosinase inhibitors: Synthesis, tyrosinase inhibition, antimelanogenic effect, antioxidant activity, and in silico docking simulation” (Bioorg Med Chem, 2024)
